Results on 16 compounds are retold here after PMC6099768, “Application of Docking Analysis in the Prediction and Biological Evaluation of the Lipoxygenase Inhibitory Action of Thiazolyl Derivatives of Mycophenolic Acid” (Molecules : A Journal of Synthetic Chemistry and Natural …, 2018).

The structures appear in SMILES notation. pIC50: −log10 of the molar value. Where two headings read alike, the source gives them in different places.

The experiment deals with T1, soybean LOX type 1b (sLOX-1) (Glycine max, UniProt P08170).
T1 sequence (P08170 1-839): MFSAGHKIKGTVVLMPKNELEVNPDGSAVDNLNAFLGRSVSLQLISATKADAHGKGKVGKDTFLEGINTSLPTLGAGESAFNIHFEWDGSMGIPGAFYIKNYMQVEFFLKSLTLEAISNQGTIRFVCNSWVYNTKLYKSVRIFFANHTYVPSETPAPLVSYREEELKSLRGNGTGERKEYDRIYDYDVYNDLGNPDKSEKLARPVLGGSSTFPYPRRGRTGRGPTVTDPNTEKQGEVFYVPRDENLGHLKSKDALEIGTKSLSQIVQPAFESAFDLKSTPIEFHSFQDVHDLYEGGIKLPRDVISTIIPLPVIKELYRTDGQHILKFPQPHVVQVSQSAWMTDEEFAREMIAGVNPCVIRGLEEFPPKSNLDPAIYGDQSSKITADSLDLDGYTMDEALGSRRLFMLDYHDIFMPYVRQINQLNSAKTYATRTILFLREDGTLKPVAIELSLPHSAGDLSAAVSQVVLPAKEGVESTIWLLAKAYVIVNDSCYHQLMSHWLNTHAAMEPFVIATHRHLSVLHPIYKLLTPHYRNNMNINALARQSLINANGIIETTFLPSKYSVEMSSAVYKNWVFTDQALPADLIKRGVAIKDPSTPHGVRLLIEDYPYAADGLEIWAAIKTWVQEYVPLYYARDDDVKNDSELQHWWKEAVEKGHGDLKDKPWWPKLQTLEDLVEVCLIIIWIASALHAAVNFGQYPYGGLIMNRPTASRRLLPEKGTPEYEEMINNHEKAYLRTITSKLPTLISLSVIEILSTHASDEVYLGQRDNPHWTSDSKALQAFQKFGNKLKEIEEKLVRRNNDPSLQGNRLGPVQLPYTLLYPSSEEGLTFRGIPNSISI
As to the kind of experiment: Soybean lipoxygenase inhibition study in vitro. It counts as biochemical. Conditions: for pIC50: read-out: IC50; for IC50: printed as negative values (−log of IC50 in µM), read-out: pIC50 (converted). How it is done: For the evaluation of lipoxygenase inhibition soybean LOX type 1b was used as reported previously. The selection was based on the structural and functional similarity of sLOX-1 with mammalian LOX [36, 50, 51, 52] which makes it the most commonly used LOX enzyme in drug screening, followed by sLOX-3 [40].
The assay conditions were as previously reported. Different compound concentrations were used for the calculation of IC50 values. The experiments were performed in triplicate.

Setting [1] is: soybean LOX type 1b, means of three determinations, deviation <10% of the mean.
Setting [2] is: Table 6, unit inferred, same values as Table 5.

Usually pIC50 stands for −log10 of the IC50, conventionally taken in molar units.

In the case of `COc1c(C)c2c(c(OC)c1C/C=C(\C)CCC(=O)Nc1nccs1)C(=O)OC2` [Compound 15, (E)-6-(4,6-Dimethoxy-7-methyl-3-oxo-1,3-dihydroisobenzofuran-5-yl)-4-methyl-N-(thiazol-2-yl)hex-4-enamide], under setting [1], the negative-log IC50 (pIC50) is 4.02.

With `COc1c(C)c2c(c(O)c1C/C=C(\C)CCC(=O)Nc1nc(-c3ccccn3)cs1)C(=O)OC2` [Compound 9, (E)-6-(4-Hydroxy-6-methoxy-7-methyl-3-oxo-1,3-dihydroisobenzofuran-5-yl)-4-methyl-N-(4-(pyridin-2-yl)thiazol-2-yl)hex-4-enamide], the IC50 is 2.5 µM. For the same compound, the pIC50 under setting [2] is 5.60. In addition, the negative logarithm of the IC50 (pIC50) under setting [1] was 5.60.

Take `COc1c(C)c2c(c(O)c1C/C=C(\C)CCC(=O)Nc1ncc(C)s1)C(=O)OC2` [Compound 2, (E)-6-(4-Hydroxy-6-methoxy-7-methyl-3-oxo-1,3-dihydroisobenzofuran-5-yl)-4-methyl-N-(5-methylthiazol-2-yl)hex-4-enamide]: the IC50 is 22.5 µM. In addition, the pIC50 under setting [2] was 4.65. Also, the pIC50 under setting [1] was 4.65.

On to `CCOC(=O)Cc1csc(NC(=O)CC/C(C)=C/Cc2c(O)c3c(c(C)c2OC)COC3=O)n1` [Compound 6, (E)-Ethyl-2-(2-(6-(4-hydroxy-6-methoxy-7-methyl-3-oxo-1,3-dihydroisobenzofuran-5-yl)-4-methylhex-4-enamido)thiazol-4-yl)acetate], for which the IC50 was 30 µM. Besides, under setting [1], the negative-log IC50 (pIC50) was 4.52.

For `COc1c(C)c2c(c(O)c1C/C=C(\C)CCC(=O)Nc1nc3c(s1)CCC3)C(=O)OC2` [Compound 14, (E)-N-(5,6-Dihydro-4H-cyclopenta[d]thiazol-2-yl)-6-(4-hydroxy-6-methoxy-7-methyl-3-oxo-1,3-dihydroisobenzofuran-5-yl)-4-methylhex-4-enamide], the pIC50 under setting [1] is 4.51.

Take `COc1c(C)c2c(c(O)c1C/C=C(\C)CCC(=O)Nc1nc3ccccc3s1)C(=O)OC2` [Compound 10, (E)-N-(Benzo[d]thiazol-2-yl)-6-(4-hydroxy-6-methoxy-7-methyl-3-oxo-1,3-dihydroisobenzofuran-5-yl)-4-methylhex-4-enamide]: the IC50 is 89.9 µM. Moreover, the pIC50 under setting [1] is 4.05.

Consider `COc1ccc2nc(NC(=O)CC/C(C)=C/Cc3c(O)c4c(c(C)c3OC)COC4=O)sc2c1` [Compound 11, (E)-6-(4-Hydroxy-6-methoxy-7-methyl-3-oxo-1,3-dihydroisobenzofuran-5-yl)-N-(6-methoxybenzo[d]thiazol-2-yl)-4-methylhex-4-enamide], for which the IC50 was 156 µM. Further, the negative logarithm of the IC50 (pIC50) under setting [2] was 3.81. For the same compound, the pIC50 under setting [1] was 3.81.

On to `COc1c(C)c2c(c(O)c1C/C=C(\C)CCC(=O)Nc1nc(-c3ccncc3)cs1)C(=O)OC2` [Compound 7, (E)-6-(4-Hydroxy-6-methoxy-7-methyl-3-oxo-1,3-dihydroisobenzofuran-5-yl)-4-methyl-N-(4-(pyridin-4-yl)thiazol-2-yl)hex-4-enamide], for which the IC50 was 78.7 µM. Further, the pIC50 under setting [1] was 4.10.

For the compound `COc1c(C)c2c(c(O)c1C/C=C(\C)CCC(=O)Nc1nc(C)c(C)s1)C(=O)OC2` [Compound 3, (E)-N-(4,5-Dimethylthiazol-2-yl)-6-(4-hydroxy-6-methoxy-7-methyl-3-oxo-1,3-dihydroisobenzofuran-5-yl)-4-methylhex-4-enamide], the IC50 was 43.8 µM. Further, the pIC50 under setting [1] is 4.36.

For the compound `COc1c(C)c2c(c(O)c1C/C=C(\C)CCC(=O)Nc1nc(-c3cccnc3)cs1)C(=O)OC2` [Compound 8], the IC50 was 89.9 µM. For the same compound, under setting [2], the pIC50 is 4.05. The negative logarithm of the IC50 (pIC50) under setting [1] was 4.05.

As to `COc1c(C)c2c(c(O)c1C/C=C(\C)CCC(=O)Nc1nc(C)cs1)C(=O)OC2` [Compound 4, (E)-6-(4-Hydroxy-6-methoxy-7-methyl-3-oxo-1,3-dihydroisobenzofuran-5-yl)-4-methyl-N-(4-methylthiazol-2-yl)hex-4-enamide], the IC50 was 31.3 µM. Also, the pIC50 under setting [2] is 4.51. Moreover, the pIC50 under setting [1] is 4.51.

For the compound `COc1c(C)c2c(c(O)c1C/C=C(\C)CCC(=O)Nc1nccs1)C(=O)OC2` [Compound 1, (E)-6-(4-Hydroxy-6-methoxy-7-methyl-3-oxo-1,3-dihydroisobenzofuran-5-yl)-4-methyl-N-(thiazol-2-yl)hex-4-enamide], the IC50 is 26.2 µM. Besides, the pIC50 under setting [1] is 4.58.

Consider `COc1c(C)c2c(c(OC)c1C/C=C(\C)CCC(=O)Nc1ncc(C)s1)C(=O)OC2` [Compound 16, (E)-6-(4,6-Dimethoxy-7-methyl-3-oxo-1,3-dihydroisobenzofuran-5-yl)-4-methyl-N-(5-methylthiazol-2-yl)hex-4-enamide], for which the negative-log IC50 (pIC50) under setting [1] was 4.05.

In the case of `CCOC(=O)c1sc(NC(=O)CC/C(C)=C/Cc2c(O)c3c(c(C)c2OC)COC3=O)nc1C` [Compound 5, (E)-Ethyl-2-(6-(4-hydroxy-6-methoxy-7-methyl-3-oxo-1,3-dihydroisobenzofuran-5-yl)-4-methylhex-4-enamido)-4-methylthiazole-5-carboxylate], the pIC50 under setting [2] is 4.65 and the negative-log IC50 (pIC50) under setting [1] is 4.65.

Regarding `COc1c(C)c2c(c(O)c1C/C=C(\C)CCC(=O)Nc1nc3c(s1)CCCC3)C(=O)OC2` [Compound 12, (E)-6-(4-Hydroxy-6-methoxy-7-methyl-3-oxo-1,3-dihydroisobenzofuran-5-yl)-4-methyl-N-(4,5,6,7-tetrahydrobenzo[d]thiazol-2-yl)hex-4-enamide], under setting [1], the pIC50 is 4.21.

Regarding `COc1c(C)c2c(c(O)c1C/C=C(\C)CCC(=O)Nc1nc3c(s1)CCCCC3)C(=O)OC2` [Compound 13, (E)-6-(4-Hydroxy-6-methoxy-7-methyl-3-oxo-1,3-dihydroisobenzofuran-5-yl)-4-methyl-N-(5,6,7,8-tetrahydro-4H-cyclohepta[d]thiazol-2-yl)hex-4-enamide], the pIC50 under setting [1] was 4.60.
